Data as given in the NIST ThermoML archive (doi:10.1016/j.jct.2016.11.010).
Numbers after ± are expanded uncertainties.

Experiment: mn = molality of the nth substance listed, in mol/kg
Conditions: 100 kPa, Liquid; for speed of sound: Frequency=3 MHz, Sing-around technique in a fixed-path interferometer; for mass density: Vibrating tube method

Q: With `O=C([O-])CC(O)(CC(=O)[O-])C(=O)[O-].[Li+].[Li+].[Li+]` [trilithium citrate] + O as the compound, how does the speed of sound (288.15 K, m1 = 0.2) read?
A: 1509.4 ± 4.2 m/s

Q: And the speed of sound (288.15 K, m1 = 0.4)?
A: 1548.6 ± 4.2 m/s

Q: And the speed of sound (288.15 K, m1 = 0.6)?
A: 1589.2 ± 4.2 m/s

Q: And the mass density (288.15 K, m1 = 0.2)?
A: 1027.57 ± 0.36 kg/m3

Q: What about the mass density (288.15 K, m1 = 0.4) of the same compound?
A: 1052.95 ± 0.37 kg/m3

Q: What about the mass density (288.15 K, m1 = 0.6) of the same compound?
A: 1078.48 ± 0.38 kg/m3

Q: What about the speed of sound (298.15 K, m1 = 0.2) of the same compound?
A: 1536 ± 4.2 m/s

Q: And the speed of sound (298.15 K, m1 = 0.4)?
A: 1572.7 ± 4.2 m/s

Q: What about the speed of sound (298.15 K, m1 = 0.6) of the same compound?
A: 1610.3 ± 4.2 m/s

Q: What about the mass density (298.15 K, m1 = 0.2) of the same compound?
A: 1025.15 ± 0.36 kg/m3

Q: And the mass density (298.15 K, m1 = 0.4)?
A: 1050.23 ± 0.37 kg/m3

Q: And the mass density (298.15 K, m1 = 0.6)?
A: 1075.51 ± 0.38 kg/m3

Q: And the speed of sound (308.15 K, m1 = 0.2)?
A: 1556.2 ± 4.2 m/s

Q: What about the speed of sound (308.15 K, m1 = 0.4) of the same compound?
A: 1590.4 ± 4.2 m/s

Q: And the speed of sound (308.15 K, m1 = 0.6)?
A: 1626 ± 4.2 m/s

Q: What about the mass density (308.15 K, m1 = 0.2) of the same compound?
A: 1021.94 ± 0.35 kg/m3

Q: What about the mass density (308.15 K, m1 = 0.4) of the same compound?
A: 1046.82 ± 0.36 kg/m3

Q: And the mass density (308.15 K, m1 = 0.6)?
A: 1071.94 ± 0.37 kg/m3

Q: And the speed of sound (318.15 K, m1 = 0.2)?
A: 1570.5 ± 4.2 m/s

Q: What about the speed of sound (318.15 K, m1 = 0.4) of the same compound?
A: 1602.2 ± 4.2 m/s

Q: And the speed of sound (318.15 K, m1 = 0.6)?
A: 1636.1 ± 4.2 m/s

Q: And the mass density (318.15 K, m1 = 0.2)?
A: 1017.98 ± 0.35 kg/m3

Q: And the mass density (318.15 K, m1 = 0.4)?
A: 1042.77 ± 0.36 kg/m3

Q: What about the mass density (318.15 K, m1 = 0.6) of the same compound?
A: 1067.78 ± 0.37 kg/m3
